According to ChEMBL document CHEMBL1221378, “Synthesis of cholestane glycosides bearing OSW-1 disaccharide or its 1-->4-linked analogue and their antitumor activities” (Bioorg Med Chem Lett, 2010):

Legend:
Type in all cases: functional, cell-based
A549 = assay: Cytotoxicity against human A549 cells after 72 hrs by MTT assay; details: A549, 72 h
HCT-8 = assay: Cytotoxicity against human HCT8 cells after 72 hrs by MTT assay; details: HCT-8, 72 h
BGC-823 = assay: Cytotoxicity against human BGC823 cells after 72 hrs by MTT assay; details: BGC-823, 72 h
A2780 = assay: Cytotoxicity against human A2780 cells after 72 hrs by MTT assay; details: A2780, 72 h
Bel-7402 = assay: Cytotoxicity against human Bel7402 cells after 72 hrs by MTT assay; details: Bel-7402, 72 h

Structure (SMILES)	IC50 (A549) [nM]	IC50 (HCT-8) [nM]	IC50 (BGC-823) [nM]	IC50 (A2780) [nM]	IC50 (Bel-7402) [nM]
COc1ccc(C(=O)O[C@H]2[C@H](O[C@@H]3[C@@H](OC(C)=O)[C@H](O[C@H]4C[C@H]5[C@@H]6CC=C7C[C@@H](O)CC[C@]7(C)[C@H]6CC[C@]5(C)[C@H]4[C@H](C)C(=O)CC[C@@H](C)CO)OC[C@H]3O)OC[C@@H](O)[C@@H]2O)cc1	46	23	13	73	39
COc1ccc(C(=O)O[C@H]2[C@H](O[C@@H]3CO[C@@H](O[C@H]4C[C@H]5[C@@H]6CC=C7C[C@@H](O)CC[C@]7(C)[C@H]6CC[C@]5(C)[C@H]4[C@H](C)C(=O)CC[C@@H](C)CO)[C@H](OC(C)=O)[C@H]3O)OC[C@@H](O)[C@@H]2O)cc1	> 10000	> 10000	> 10000	> 10000	> 10000
COc1ccc(C(=O)O[C@H]2[C@H](O[C@@H]3CO[C@@H](O[C@@H](CC[C@@H](C)CO)[C@@H](C)[C@H]4[C@@H](O[C@@H]5OC[C@@H](O[C@@H]6OC[C@@H](O)[C@H](O)[C@H]6OC(=O)c6ccc(OC)cc6)[C@H](O)[C@H]5OC(C)=O)C[C@H]5[C@@H]6CC=C7C[C@@H](O)CC[C@]7(C)[C@H]6CC[C@]45C)[C@H](OC(C)=O)[C@H]3O)OC[C@@H](O)[C@@H]2O)cc1	> 10000	> 10000	> 10000	> 10000	> 10000
CC(=O)O[C@H]1C(=O)[C@@]2(C)[C@H]([C@H](OC(=O)c3ccccc3)[C@]3(O)C[C@H](OC(=O)[C@H](O)[C@@H](NC(=O)c4ccccc4)c4ccccc4)C(C)=C1C3(C)C)[C@]1(OC(C)=O)CO[C@@H]1C[C@@H]2O [PACLITAXEL]	16	51	< 1	< 1	60
